Assay results: PubChem BioAssay AID328 (DTP/NCI, 2004)
Values joined by “and” are separate entries in the source; they are usually repeats but may differ in a detail not shown here. Equal values may be shown once. Inconclusive results and toxic doses are left out. The calls were made as follows: active = survival T/C of 150% or more; inactive = T/C below 125% in these data.

Tested on: BDF1 mice, P388 leukemia ip, median survival T/C
Experiment: NCI In Vivo Anticancer Drug Screen. Data for tumor model P388 Leukemia (intraperitoneal) in B6D2F1 (BDF1) mice
Conditions: endpoint: median survival time, higher = longer survival
In short: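 Survival ratio, drug arm over vehicle arm, in mice with a transplanted tumour.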

Measured: T/C

Cc1c(N)nc([C@H](CC(N)=O)NC[C@H](N)C(N)=O)nc1C(=O)N[C@H](C(=O)N[C@H](C)[C@@H](O)[C@H](C)C(=O)N[C@H](C(=O)NCCc1nc(-c2nc(C(=O)NCCC[S+](C)C)cs2)cs1)[C@@H](C)O)C(OC1OC(CO)C(O)C(O)C1OC1OC(CO)C(O)C(OC(N)=O)C1O)c1cnc[nH]1 (stereo partly drawn)
inactive: dose: 0.12 mg/kg/injection, schedule: Q03HX040 (ip), vehicle: saline 101 % of control | dose: 0.5 mg/kg/injection, schedule: Q03HX040 (ip), vehicle: saline 93 % of control | dose: 1.0 mg/kg/injection, schedule: Q01DX005 (ip), vehicle: water 105 % of control | dose: 1.0 mg/kg/injection, schedule: Q01DX009 (ip), vehicle: water 109 % of control | dose: 2.0 mg/kg/injection, schedule: Q01DX009 (ip), vehicle: saline 112 % of control and 115 % of control | dose: 2.0 mg/kg/injection, schedule: Q01DX009 (ip), vehicle: water 109 % of control | dose: 2.0 mg/kg/injection, schedule: Q03HX008 (ip), vehicle: saline 113 % of control | dose: 2.0 mg/kg/injection, schedule: Q03HX016 (ip), vehicle: saline 109 % of control | dose: 2.88 mg/kg/injection, schedule: Q01DX009 (ip), vehicle: saline 103 % of control | dose: 4.0 mg/kg/injection, schedule: Q01DX005 (ip), vehicle: water 107 % of control | dose: 4.0 mg/kg/injection, schedule: Q01DX009 (ip), vehicle: saline 109 % of control and 110 % of control | dose: 4.0 mg/kg/injection, schedule: Q01DX009 (ip), vehicle: water 98 % of control | dose: 4.0 mg/kg/injection, schedule: Q03HX008 (ip), vehicle: saline 109 % of control and 118 % of control | dose: 4.0 mg/kg/injection, schedule: Q03HX024 (ip), vehicle: saline 118 % of control | dose: 4.0 mg/kg/injection, schedule: Q04DX003 (ip), vehicle: other 124 % of control | dose: 4.8 mg/kg/injection, schedule: Q01DX009 (ip), vehicle: saline 115 % of control | dose: 8.0 mg/kg/injection, schedule: Q01DX005 (ip), vehicle: water 107 % of control | dose: 8.0 mg/kg/injection, schedule: Q01DX009 (ip), vehicle: water 100 % of control | dose: 8.0 mg/kg/injection, schedule: Q03HX008 (ip), vehicle: saline 118 % of control | dose: 8.0 mg/kg/injection, schedule: Q03HX016 (ip), vehicle: saline 122 % of control | dose: 8.0 mg/kg/injection, schedule: Q03HX024 (ip), vehicle: saline 104 % of control and 109 % of control | dose: 8.0 mg/kg/injection, schedule: Q04DX003 (ip), vehicle: other 108 % of control | dose: 10.8 mg/kg/injection, schedule: Q01DX009 (ip), vehicle: saline 110 % of control | dose: 12.0 mg/kg/injection, schedule: Q01DX009 (ip), vehicle: saline 117 % of control | dose: 13.0 mg/kg/injection, schedule: Q01DX001 (ip), vehicle: saline 113 % of control | dose: 13.33 mg/kg/injection, schedule: Q01DX009 (ip), vehicle: saline 119 % of control | dose: 13.33 mg/kg/injection, schedule: Q04DX003 (ip), vehicle: saline 100 % of control | dose: 16.0 mg/kg/injection, schedule: Q01DX001 (ip), vehicle: saline 118 % of control and 122 % of control | dose: 16.0 mg/kg/injection, schedule: Q01DX005 (ip), vehicle: water 109 % of control | dose: 16.0 mg/kg/injection, schedule: Q01DX009 (ip), vehicle: water 86 % of control | dose: 16.0 mg/kg/injection, schedule: Q03HX008 (ip), vehicle: saline 90 % of control and 122 % of control | dose: 16.0 mg/kg/injection, schedule: Q03HX016 (ip), vehicle: saline 104 % of control | dose: 18.0 mg/kg/injection, schedule: Q01DX009 (ip), vehicle: saline 95 % of control and 98 % of control | dose: 20.0 mg/kg/injection, schedule: Q01DX001 (ip), vehicle: saline 113 % of control | dose: 22.22 mg/kg/injection, schedule: Q04DX003 (ip), vehicle: saline 106 % of control | dose: 30.0 mg/kg/injection, schedule: Q01DX001 (ip), vehicle: saline 109 % of control | dose: 30.0 mg/kg/injection, schedule: Q01DX009 (ip), vehicle: saline 86 % of control | dose: 32.0 mg/kg/injection, schedule: Q01DX001 (ip), vehicle: saline 122 % of control | dose: 32.0 mg/kg/injection, schedule: Q04DX003 (ip), vehicle: other 101 % of control | dose: 32.0 mg/kg/injection, schedule: Q04DX003 (ip), vehicle: saline 100 % of control | dose: 32.0 mg/kg/injection, schedule: Q08DX002 (ip), vehicle: saline 109 % of control | dose: 37.0 mg/kg/injection, schedule: Q04DX003 (ip), vehicle: saline 110 % of control | dose: 44.0 mg/kg/injection, schedule: Q01DX001 (ip), vehicle: saline 113 % of control and 118 % of control | dose: 61.7 mg/kg/injection, schedule: Q04DX003 (ip), vehicle: saline 105 % of control | dose: 64.0 mg/kg/injection, schedule: Q01DX001 (ip), vehicle: saline 104 % of control and 118 % of control | dose: 64.0 mg/kg/injection, schedule: Q01DX009 (ip), vehicle: saline 95 % of control | dose: 64.0 mg/kg/injection, schedule: Q04DX003 (ip), vehicle: saline 109 % of control | dose: 64.0 mg/kg/injection, schedule: Q08DX002 (ip), vehicle: saline 122 % of control | dose: 67.0 mg/kg/injection, schedule: Q01DX001 (ip), vehicle: saline 113 % of control | dose: 100.0 mg/kg/injection, schedule: Q01DX001 (ip), vehicle: saline 108 % of control | dose: 128.0 mg/kg/injection, schedule: Q01DX001 (ip), vehicle: saline 118 % of control | dose: 128.0 mg/kg/injection, schedule: Q04DX003 (ip), vehicle: saline 100 % of control | dose: 128.0 mg/kg/injection, schedule: Q08DX002 (ip), vehicle: saline 104 % of control and 118 % of control
